Measured values taken from the supplement of paper PMC10307832.

Assays:
Experiment in all cases: relative viability (nuclei count vs DMSO), 5 days (fraction); higher = more cells survive
MK-2206 + Luminespib = compound: NC1(c2ccc(-c3nc4ccn5c(=O)[nH]nc5c4cc3-c3ccccc3)cc2)CCC1 [MK-2206] + CCNC(=O)c1noc(-c2cc(C(C)C)c(O)cc2O)c1-c1ccc(CN2CCOCC2)cc1 [Luminespib] (partner 0.01 µM)
Procedure, shortened: (§1)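 Five library-drug doses in √10 steps were combined with a fixed anchor-drug dose, or a single drug was given alone, by pin tool to lung cancer cell lines in 1536-well plates the day after seeding. Nuclei were stained and counted after 5 days. Relative viability is the nuclei count in treated wells over that in vehicle wells, taken as the median of duplicate plates.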

Pictilisib + Bortezomib = compound: CS(=O)(=O)N1CCN(Cc2cc3nc(-c4cccc5[nH]ncc45)nc(N4CCOCC4)c3s2)CC1 [Pictilisib] + CC(C)C[C@H](NC(=O)[C@H](Cc1ccccc1)NC(=O)c1cnccn1)B(O)O [Bortezomib] (partner 0.002 µM)
Procedure, shortened: as §1

Pictilisib + Lapatinib = compound: CS(=O)(=O)N1CCN(Cc2cc3nc(-c4cccc5[nH]ncc45)nc(N4CCOCC4)c3s2)CC1 [Pictilisib] + CS(=O)(=O)CCNCc1ccc(-c2ccc3ncnc(Nc4ccc(OCc5cccc(F)c5)c(Cl)c4)c3c2)o1 [Lapatinib] (partner 2 µM)
Procedure, shortened: as §1

MK-2206 + Pemetrexed = compound: NC1(c2ccc(-c3nc4ccn5c(=O)[nH]nc5c4cc3-c3ccccc3)cc2)CCC1 [MK-2206] + Nc1nc2[nH]cc(CCc3ccc(C(=O)N[C@@H](CCC(=O)O)C(=O)O)cc3)c2c(=O)[nH]1 [Pemetrexed] (partner 0.2 µM)
Procedure, shortened: as §1

Pictilisib + Pemetrexed = compound: CS(=O)(=O)N1CCN(Cc2cc3nc(-c4cccc5[nH]ncc45)nc(N4CCOCC4)c3s2)CC1 [Pictilisib] + Nc1nc2[nH]cc(CCc3ccc(C(=O)N[C@@H](CCC(=O)O)C(=O)O)cc3)c2c(=O)[nH]1 [Pemetrexed] (partner 0.2 µM)
Procedure, shortened: as §1

| Cell Line | relative viability (MK-2206 + Luminespib; first compound 0.01 µM) | relative viability (MK-2206 + Luminespib; first compound 0.03162 µM) | relative viability (MK-2206 + Luminespib; first compound 0.3162 µM) | relative viability (MK-2206 + Luminespib; first compound 1 µM) | relative viability (Pictilisib + Bortezomib; first compound 0.02 µM) | relative viability (Pictilisib + Bortezomib; first compound 0.06325 µM) | relative viability (Pictilisib + Bortezomib; first compound 0.6325 µM) | relative viability (Pictilisib + Bortezomib; first compound 2 µM) | relative viability (Pictilisib + Lapatinib; first compound 0.02 µM) | relative viability (Pictilisib + Lapatinib; first compound 0.06325 µM) | relative viability (Pictilisib + Lapatinib; first compound 0.6325 µM) | relative viability (Pictilisib + Lapatinib; first compound 2 µM) | relative viability (MK-2206 + Pemetrexed; first compound 0.01 µM) | relative viability (MK-2206 + Pemetrexed; first compound 0.03162 µM) | relative viability (MK-2206 + Pemetrexed; first compound 0.3162 µM) | relative viability (MK-2206 + Pemetrexed; first compound 1 µM) | relative viability (Pictilisib + Pemetrexed; first compound 0.02 µM) | relative viability (Pictilisib + Pemetrexed; first compound 0.06325 µM) | relative viability (Pictilisib + Pemetrexed; first compound 0.6325 µM) | relative viability (Pictilisib + Pemetrexed; first compound 2 µM) |
| --- | --- | --- | --- | --- | --- | --- | --- | --- | --- | --- | --- | --- | --- | --- | --- | --- | --- | --- | --- | --- |
| 201T | 1.01 | 1.05 | 1.09 | 1.03 | 1.12 | 1.1 | 1.07 | 0.993 | 1.02 | 1.01 | 0.969 | 0.933 | 0.318 | 0.313 | 0.342 | 0.333 | 0.301 | 0.352 | 0.289 | 0.276 |
| SK-LU-1 | 0.217 | 0.209 | 0.211 | 0.195 | 1.64 | 1.27 | 0.81 | 0.63 | 0.977 | 0.792 | 0.665 | 0.481 | 0.964 | 0.963 | 1.04 | 0.962 | 0.967 | 1.07 | 0.835 | 0.624 |
| H3255 | 0.872 | 1.12 | 0.754 | 0.835 | 0.881 | 0.832 | 0.632 | 0.395 | 0.237 | 0.222 | 0.153 | 0.124 | 0.557 | 0.614 | 0.538 | 0.508 | 0.611 | 0.613 | 0.525 | 0.399 |
| LOU-NH91 | 0.344 | 0.303 | 0.32 | 0.373 | 0.456 | 0.455 | 0.502 | 0.401 | 0.787 | 0.733 | 0.621 | 0.525 | 0.366 | 0.406 | 0.345 | 0.356 | 0.381 | 0.368 | 0.4 | 0.372 |
| NCI-H1666 | 0.961 | 1.02 | 1.13 | 1.01 | 0.854 | 0.744 | 0.545 | 0.388 | 0.666 | 0.725 | 0.476 | 0.307 | 0.793 | 0.774 | 1.03 | 0.787 | 0.947 | 0.846 | 0.737 | 0.725 |
| NCI-H2023 | 0.681 | 0.66 | 0.619 | 0.413 | 1.17 | 0.764 | 0.511 | 0.223 | 0.78 | 0.611 | 0.349 | 0.243 | 0.266 | 0.195 | 0.25 | 0.209 | 0.195 | 0.228 | 0.171 | 0.105 |
| COR-L 105 | 0.868 | 0.803 | 0.888 | 0.729 | 1.1 | 0.658 | 0.779 | 0.527 | 0.394 | 0.401 | 0.338 | 0.325 | 1.22 | 1.08 | 1.29 | 1.28 | 1.19 | 1.04 | 1.22 | 0.885 |
| NCI-H838 | 0.288 | 0.303 | 0.244 | 0.282 | 0.77 | 0.744 | 0.606 | 0.313 | 1.15 | 0.875 | 0.728 | 0.387 | 0.245 | 0.227 | 0.255 | 0.201 | 0.24 | 0.251 | 0.314 | 0.184 |
| SW 1573 | 0.275 | 0.192 | 0.201 | 0.184 | 0.822 | 1.08 | 0.775 | 0.333 | 1.12 | 1.28 | 0.89 | 0.55 | 0.782 | 0.793 | 0.726 | 0.713 | 0.845 | 0.91 | 0.52 | 0.424 |
